According to patent US20160222014A1, “COMPOUNDS FOR REGULATING FAK AND/OR SRC PATHWAYS” (ASANA BIOSCIENCES, LLC, priority 2013, published 2016):
pIC50: −log10 of the molar value.

Key:
[1] = target: T1, recombinant human FAK1 (Homo sapiens, UniProt Q05397); assay: FAK1 HTRF assay; type: biochemical
T1 construct: fused on or other part: N-terminal 6xHis tag
Procedure, shortened: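 IC50 values derive from HTRF % inhibition (ratio 665/620 nm, Eu–anti-phosphotyrosine 0.1 nM, SA-APC 12 nM). The kinase step ran 45 min at room temperature, pairing 10 nM His-FAK1(692–end) from baculovirus with 0.5 μM gastrin Tyr87 biotin-peptide and a reagent at 10 μM final, pH 7.4. Compound dilutions began at 10 μM.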

[2] = target: T2, Recombinant Src enzyme (Homo sapiens, UniProt P12931); assay: Src HTRF assay; type: biochemical
T2 construct: purchased Millipore 14-326; host or cells: Sf21 insect cells
T2 sequence (P12931 whole entry): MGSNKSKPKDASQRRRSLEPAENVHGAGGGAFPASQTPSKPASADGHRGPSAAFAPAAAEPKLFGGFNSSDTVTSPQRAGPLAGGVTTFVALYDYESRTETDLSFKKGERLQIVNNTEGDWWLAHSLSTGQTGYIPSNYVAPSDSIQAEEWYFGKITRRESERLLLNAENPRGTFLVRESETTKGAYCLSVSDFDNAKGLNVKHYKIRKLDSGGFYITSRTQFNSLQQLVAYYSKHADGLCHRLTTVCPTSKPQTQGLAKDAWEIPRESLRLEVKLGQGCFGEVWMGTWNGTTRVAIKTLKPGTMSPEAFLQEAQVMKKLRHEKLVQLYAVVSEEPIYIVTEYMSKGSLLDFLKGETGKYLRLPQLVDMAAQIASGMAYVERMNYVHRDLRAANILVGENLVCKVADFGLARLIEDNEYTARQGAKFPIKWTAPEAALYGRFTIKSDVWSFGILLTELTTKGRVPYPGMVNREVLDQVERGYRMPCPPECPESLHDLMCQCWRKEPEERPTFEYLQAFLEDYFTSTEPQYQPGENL
Experimental: Enzyme assay buffer, supplements, and compounds were prepared as described in the FAK HTRF assay.
Recombinant Src enzyme expressed in Sf21 insect cells was obtained (Millipore, Cat No. 14-326, Lot # D8CN006U-K). A 35 μM stock was used at a final concentration of 5 nM in the assay.
Tyk2 synthetic peptide-Biotinylated-N-terminal tag-[…]
A custom made substrate, a Tyk2 synthetic peptide, biotinylated with an N-terminal tag was obtained (Biopeptide and Sigma, Cat. No. 14918001 VC80021). A 100 μM stock was used at a final concentration of 0.5 μM in the assay.
A 10 mM stock in 100 μL enzyme assay buffer pH7.4 was prepared freshly and used at a final concentration of 10 μM in the assay.
Dasatinib (Bristol-Myers Squibb)
The assay procedure was the same as discussed above.

T1 sequence (Q05397 422-680 limits assumed): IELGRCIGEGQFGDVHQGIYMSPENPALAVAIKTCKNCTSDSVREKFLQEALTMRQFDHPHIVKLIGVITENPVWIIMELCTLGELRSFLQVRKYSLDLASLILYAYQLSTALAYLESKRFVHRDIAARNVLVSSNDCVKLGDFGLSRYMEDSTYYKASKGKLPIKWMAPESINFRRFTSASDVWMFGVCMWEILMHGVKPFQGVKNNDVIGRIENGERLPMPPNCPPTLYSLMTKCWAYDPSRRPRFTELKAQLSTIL

Compound | pIC50 [1] | pIC50 [2]
O=C1CCc2cc(Nc3ncc4ccn(S(=O)(=O)c5cccc(OC(F)(F)F)c5)c4n3)ccc2N1 [Example 45] | < 6.00 | < 6.00
C[C@H]1CN(c2ccc(Nc3ncc4ccn(Cc5cccnc5N(C)S(C)(=O)=O)c4n3)nc2)CCN1 [Example 585, (S)—N-methyl-N-(3-((2-((5-(3-methylpiperazin-1-yl)pyridin-2-yl)amino)-7H-pyrrolo[2,3-d]pyrimidin-7-yl)methyl)pyridin-2-yl)methanesulfonamide] | < 6.00 | < 6.00
CN(c1ncccc1Cn1cc(C(N)=O)c2cnc(Nc3ccc(N4CCNCC4)cc3)nc21)S(C)(=O)=O [Example 734] | < 6.00 | < 6.00
CN(c1ncccc1Cn1ccc2cnc(Nc3ncccn3)nc21)S(C)(=O)=O [Example 227] | < 6.00 | < 6.00
COc1cccc(Nc2ncc3ccn(Cc4ccccc4N(CCN4CCNCC4)S(C)(=O)=O)c3n2)c1 [Example 583] | < 6.00 | < 6.00
N#Cc1ccccc1S(=O)(=O)n1ccc2cnc(Nc3ccc(N4CCC(O)CC4)cc3)cc21 [Example 414] | > 7.70 | < 6.00
CN(c1ccccc1Cn1ccc2cnc(Nc3ccc(N4CCOCC4)cc3)cc21)S(C)(=O)=O [Example 385] | > 7.70 | < 6.00
COc1cc(N2CCN(C)CC2)ccc1Nc1cc2c(ccn2S(=O)(=O)c2ccccc2C#N)cn1 [Example 493] | > 7.70 | < 6.00
O=C1CCc2cc(Nc3ncc4cnn(S(=O)(=O)c5cccc6cccnc56)c4n3)ccc2N1 [Example 228] | > 7.70 | > 7.70
CN(c1ncccc1Cn1ccc2cnc(Nc3ccc4c(c3)NC(=O)CC4)nc21)S(C)(=O)=O [Example 209] | > 7.70 | > 7.70
C[C@H]1CN(c2ccc(Nc3ncc4ccn(Cc5ccccc5N(C)S(C)(=O)=O)c4n3)cc2)CCN1C [Example 491] | > 7.70 | > 7.70
O=S(=O)(c1cccc2cccnc12)n1ccc2cnc(Nc3ccc(N4CCNCC4)cc3Cl)nc21 [Example 418] | > 7.70 | < 6.00
CN(C)C1CCN(c2ccc(Nc3ncc4c(n3)N(c3ccccc3NS(C)(=O)=O)CC4(C)C)cc2)CC1 [Example 784] | < 6.00 | < 6.00
Cc1ccc(N(C)S(C)(=O)=O)c(Cn2ccc3cnc(Nc4ccc5c(c4)CC(=O)N5)nc32)c1 [Example 786] | > 7.70 | < 6.00
O=S(=O)(c1cccc2cccnc12)n1ccc2cnc(Nc3ccc(N4CCNCC4)cc3CO)cc21 [Example 361] |  | < 6.00
O=S(=O)(c1cccc2cccnc12)n1ccc2cnc(Nc3ccc(N4CCNCC4)cc3OC3CCC3)cc21 [Example 362] | < 6.00 | < 6.00
COc1ccccc1S(=O)(=O)n1ccc2cnc(Nc3cccc(NC(C)=O)c3)nc21 [Example 104] |  | < 6.00
CN(c1ncccc1Cn1ccc2cnc(Nc3ccccc3F)nc21)S(C)(=O)=O [Example 155] |  | < 6.00
COc1cc(N2CCC(N(C)C)CC2)ccc1Nc1ncc2c(n1)N(S(=O)(=O)c1cccc3cccnc13)CC2(C)C [Example 650] | > 7.70 | < 6.00
CC(=O)N(C)c1ccccc1Cn1ccc2cnc(Nc3ccc(N4CCN[C@H](C)C4)cc3)nc21 [Example 787] | < 6.00 | < 6.00
CC(=O)Nc1ccc(S(=O)(=O)n2ccc3cnc(Nc4ccc(CC#N)cc4)nc32)cc1 [Example 183] | < 6.00 | < 6.00

Compound | pIC50 [1] | pIC50 [2]
CC(=O)Nc1ccc(Nc2cc3c(ccn3Cc3ccccc3OC(F)F)cn2)cc1 [Example 97] |  | < 6.00
O=C1Cc2cc(Nc3cc4c(cn3)cnn4S(=O)(=O)c3cccc4cccnc34)ccc2N1 [Example 354] |  | < 6.00
COc1cc(N2CCC(OC)CC2)ccc1Nc1cc2c(ccn2S(=O)(=O)c2cccc3cccnc23)cn1 [Example 430] | > 7.70 | < 6.00
CC(=O)N(C)c1ccccc1Cn1ccc2cnc(Nc3ccc(N4CCC(N(C)C)CC4)cc3)nc21 [Example 788] | < 6.00 | < 6.00
Cc1cc(Nc2cc3c(cn2)cnn3S(=O)(=O)c2cccc3cccnc23)ccc1N1CCOCC1 [Example 374] | > 7.70 | < 6.00
CN(c1ncccc1Cn1cc(F)c2cnc(Nc3ccc(N4CCNCC4)cc3)nc21)S(C)(=O)=O [Example 722] |  | < 6.00
CC1(C)CN(c2ccccn2)c2nc(Nc3ccc4[nH]cc(C5=CCNCC5)c4c3)ncc21 [Example 713] | > 7.70 | < 6.00
CN(c1ncccc1Cn1cc2cnc(Nc3ccc4c(c3)CCC(=O)N4)nc2n1)S(C)(=O)=O [Example 190] | < 6.00 | < 6.00
CN(c1ncccc1Cn1cc(C#N)c2cnc(Nc3ccc(N4CCNCC4)cc3)nc21)S(C)(=O)=O [Example 732] | < 6.00 | < 6.00
CN(c1ccccc1Cn1cc(C#N)c2cnc(Nc3ccc(N4CCNCC4)cc3)nc21)S(C)(=O)=O [Example 731] |  | < 6.00
N#Cc1ccccc1Nc1ncc2ccn(S(=O)(=O)c3cccc4cccnc34)c2n1 [Example 359] | > 7.70 | < 6.00
COc1cc(N2CCC(O)CC2)ccc1Nc1cc2c(cn1)cnn2S(=O)(=O)c1cccc2cccnc12 [Example 396] | > 7.70 | < 6.00
COc1ccccc1S(=O)(=O)n1ccc2cnc(Nc3ccncc3)nc21 [Example 144] |  | < 6.00
CN(c1ncccc1Cn1ccc2cnc(Nc3c(F)cccc3F)nc21)S(C)(=O)=O [Example 167] |  | < 6.00
CN(C)C1CCN(c2ccc(Nc3nc4c(ccn4Cc4cccnc4N(C)S(C)(=O)=O)cc3C#N)cc2)CC1 [Example 785] | < 6.00 | < 6.00
C[C@H]1CN(c2ccc(Nc3ncc4ccn(Cc5ccc(C#N)cc5N(C)S(C)(=O)=O)c4n3)cc2)CCN1 [Example 685] |  | < 6.00
CC1(C)CN(S(=O)(=O)c2cccc3cccnc23)c2nc(Nc3ccc(N4CCC(CO)CC4)cc3)ncc21 [Example 625] |  | < 6.00
COc1cc(N2CCN(C)CC2)ccc1Nc1cc2c(ccn2S(=O)(=O)c2cccc3cccnc23)cn1 [Example 407] | > 7.70 | < 6.00
Cc1ccccc1Nc1ncc2ccn(Cc3cccnc3N(C)S(C)(=O)=O)c2n1 [Example 148] |  | < 6.00
O=C1CCc2cc(Nc3ncc4ccn(S(=O)(=O)c5ccc6ncsc6c5)c4n3)ccc2N1 [Example 226] |  | < 6.00
CC(=O)Nc1ccc(S(=O)(=O)n2ccc3cnc(Nc4ccc5c(c4)CCC(=O)N5)nc32)cc1 [Example 192] |  | < 6.00

Compound | pIC50 [1] | pIC50 [2]
C[C@H]1CN(c2ccc(Nc3cc4c(cn3)cnn4Cc3cccnc3N(C)S(C)(=O)=O)cc2)CCN1 [Example 781] |  | < 6.00
CN(c1ncccc1CN1CCc2cnc(Nc3ccc(N4CCNCC4)cc3)nc21)S(C)(=O)=O [Example 433] |  | < 6.00
C[C@H]1CN(c2ccc(Nc3ncc4ccn(Cc5ccccc5N(C)S(=O)(=O)CCCF)c4n3)c(F)c2)CCN1 [Example 730] | < 6.00 | < 6.00
Cc1ccnc2c(S(=O)(=O)n3ccc4cnc(Nc5ccc(N6CCC(O)CC6)cc5)nc43)cccc12 [Example 402] |  | < 6.00
C[C@H]1CN(c2ccc(Nc3ncc4ccn(Cc5ccccc5N(C)S(C)(=O)=O)c4n3)nc2)CCN1 [Example 565] |  | < 6.00
CC(=O)Nc1cccc(Nc2ncc3ccn(S(=O)(=O)c4ccc(C)cc4)c3n2)c1 [Example 39] |  | < 6.00
CN(c1ncccc1Cn1ccc2cnc(Nc3ccc(N4CCN(CCO)CC4)cc3)cc21)S(C)(=O)=O [Example 393] |  | < 6.00
CC1(C)CN(S(=O)(=O)c2cccc3cccnc23)c2nc(Nc3ccc(NC4CCNCC4)cc3)ncc21 [Example 673] |  | < 6.00
COc1ccc(Cn2ccc3cnc(Nc4ccc(N5CCN[C@@H](C)C5)cc4)nc32)c(N(C)S(C)(=O)=O)c1 [Example 714] |  | < 6.00
CC(=O)Nc1cccc(Nc2cc3c(ccn3Cc3ccccc3OC(F)F)cn2)c1 [Example 98] |  | < 6.00
CN(c1ncccc1Cn1ccc2cnc(Nc3cccc(-c4nnn[nH]4)c3)nc21)S(C)(=O)=O [Example 188] |  | < 6.00
C[C@H]1CN(c2ccc(Nc3cc4c(ccn4Cc4cccnc4N(C)S(C)(=O)=O)cn3)cc2)CCN1 [Example 616] |  | < 6.00
COc1ccc(Cn2ccc3cnc(Nc4ccc(N5CCN[C@H](C)C5)cc4)nc32)c(N(C)S(C)(=O)=O)c1 [Example 671] |  | < 6.00
COc1cc(N2CCNCC2)ccc1Nc1cc2c(ccn2S(=O)(=O)c2cccc3ccc(C)nc23)cn1 [Example 382] |  | < 6.00
CC(=O)Nc1cccc(Nc2ncc3ccn(S(=O)(=O)c4cccc(OC(F)(F)F)c4)c3n2)c1 [Example 40] |  | < 6.00
C[C@H]1CN(c2ccc(Nc3ncc4ccn(Cc5cccc6c5N(C)S(=O)(=O)C6)c4n3)cc2)CCN1 [Example 764] |  | < 6.00
CN(c1ncccc1Cn1ccc2cnc(Nc3ccc(N4CCC(O)CC4)cc3)cc21)S(C)(=O)=O [Example 384] |  | < 6.00
O=S(=O)(c1ccc2ncsc2c1)n1ccc2cnc(Nc3ccc(N4CCNCC4)cc3)nc21 [Example 234] |  | < 6.00
CN(c1ncccc1Cn1ncc2cnc(Nc3ccc(N4CCNCC4)cc3)nc21)S(C)(=O)=O [Example 241] |  | > 7.70
CN1c2c(Cn3ccc4cnc(Nc5ccc(N6CCNCC6)cc5)nc43)cccc2CS1(=O)=O [Example 756] |  | < 6.00
